For data set [1] the following is noted: cited from earlier work.
The conditions of data set [2]: cited from earlier work. The source holds these as a separate data set.
For data set [3] the following is noted: cited from earlier work. The source holds these as a separate data set.
A short description of data set [4]: behaviour of ketorolac tromethamine solutions outside pH 6.0-8.5. In kind it is physicochemical. From the text: In the present invention, a stable and injectable pharmaceutical composition which contains an acetic acid class of NSAID is described. The pH value of the injectable pharmaceutical composition is maintained at 6.0-8.5, preferably 6.9-7.9. When the pH values of the ketorolac tromethamine solutions are lower than 6, the NSAID precipitates from the solutions.
(4). Measure the pH of the solution in (3). If the pH is below 6.0, add an appropriate amount of the alkaline agent as described in (A) of the above “pH-adjusting agent” to the solution. If the pH is above 8.5, add an appropriate amount of the acidic agent as described in (B) of the above “pH-adjusting agent” to the solution. Cloudiness is observed when the pH of the solution is below 6. The solution will become clear after the pH adjustment to between 6.0-8.5.

Data set [5] relates to plasma protein. As to conditions: once in the circulation; cited from earlier work.
For data set [6] the following is noted: white to off-white crystalline substance; cited from earlier work.
For data set [7] the following is noted: cited from earlier work. This is another data set of the same source.

Where two headings read alike, the source gives them in different places.

`NC(CO)(CO)CO.O=C(c1ccccc1)c1ccc2n1CCC2C(=O)O` (stereo not shown) [ketorolac tromethamine]: the terminal elimination half-life was 4.7 to 8.6 h in data set [1] (geriatric patients) and 3.8 to 6.3 h in data set [1] (young adults). In addition, the water solubility entry in data set [2] was “enhanced”. Moreover, the “onset of the anti-inflammatory, analgesic, and antipyretic effects” value in data set [3] (after the intramuscular administration) was 30 to 60 min. Moreover, the “time to maximum effect” value in data set [3] (after the intravenous or intramuscular administrations) is 1 to 2 h. The “duration of therapeutic effects” value in data set [3] (in vivo) is 4 to 6 h. Further, the behaviour of solution result is given as “color of the solutions changes” in data set [4] (pH higher than 8.5) and “precipitates” in data set [4] (pH lower than 6). For the same molecule, the plasma protein bound in data set [5] is on record as 99%. The “behaviour under prolonged exposure to light” value in data set [6] was “discolors”. The pKa (in general, the negative logarithm of the acid dissociation constant) in data set [7] was 3.5.
Consider `O=C(c1ccccc1)c1ccc2n1CCC2C(=O)O` (racemic) [ketorolac, (±)-5-benzoyl-2,3-dihydro-1H-pyrrolizine-1-carboxylic acid], for which the “time at which serum concentration reaches a peak” value in data set [1] (route not given) is given as “about 2.9±1.8 minutes”. For the same molecule, the water solubility result in data set [2] was “low”.

Values taken from patent US20030191187A1, “Injectable pharmaceutical composition containing a non-steroidal anti-inflammatory drug and method for preparing the same” (priority 2002, published 2003).
